# Literature values as cited in article PMC12084609, “Structural insights into small-molecule agonist recognition and activation of complement receptor C3aR” (The EMBO Journal, 2025).
# System: C3aR
# Design: method as in Mathieu et al, 2005; Rodriguez et al, 2024
# Conditions: blockade of calcium influx attributed to β-arrestin mediated internalization; ref Mathieu et al, 2005; Rodriguez et al, 2024; cited from earlier work
smiles,measurement,value
NC(N)=NCCC[C@H](NC(=O)COCC(c1ccccc1)c1ccccc1)C(=O)O [SB290157],activity at C3aR,potent agonist
